Earlier results, collected in PMC8513424 (Laryngoscope Investigative Otolaryngology, 2021).

Columns and labels:
[1] = tested on: isogenic VS‐ and meningioma‐related cell lines with or without NF2 expression; details: among 19 small molecules; cited from earlier work
meningiomas = details: cited from earlier work

Row | Molecule | Activity across schwannoma and meningioma cell models [1] | Response of meningiomas (meningiomas)
1 | Cc1[nH]c2ccccc2c1CCNCc1ccc(/C=C/C(=O)NO)cc1 [panobinostat] | greatest activity | 
2 | bevacizumab |  | do not respond
3 | COc1ccc(-c2nc(N3CCOCC3)c3sc(CN(C)c4ncc(C(=O)NO)cn4)cc3n2)cn1 [CUDC‐907] | greatest activity | 
